Assay results taken from ChEMBL document CHEMBL1201862, “PubChem BioAssay data set” (2004).
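The compound was tested at five concentrations on cells cultured in 96-well plates, with a 48-hour exposure period. At the GI50, growth is halved.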 Active and inactive are the calls of the source. Rule as the data show it: active = GI50 up to about 1.1 µM and inactive = higher.

Key:
Experiment in all cases: inhibition of tumour cell growth, NCI panel, 48 h
A498 = system: A498
A549 = system: A549
CAKI-1 = system: CAKI-1
CCRF-CEM = system: CCRF-CEM
EKVX = system: EKVX
HCC 2998 = system: HCC 2998
HCT-116 = system: HCT-116
IGROV-1 = system: IGROV-1
K562 = system: K562
KM12 = system: KM12
MOLT-4 = system: MOLT-4
NCI-H23 = system: NCI-H23
OVCAR-5 = system: OVCAR-5
SF-268 = system: SF-268
SF-295 = system: SF-295
SK-MEL-5 = system: SK-MEL-5
SNB-75 = system: SNB-75
HL-60 = system: HL-60

Measured: GI50

CN1C/C(=C\C=C\c2ccccc2)C(=O)/C(=C/C=C/c2ccccc2)C1
inactive: A498 > 100 µM | A549 > 100 µM | CAKI-1 > 100 µM | CCRF-CEM 35.9 µM | EKVX > 100 µM | HCC 2998 > 100 µM | HCT-116 > 100 µM | IGROV-1 > 100 µM | K562 > 100 µM | KM12 > 100 µM | MOLT-4 40.3 µM | NCI-H23 > 100 µM | OVCAR-5 > 100 µM | SF-268 > 100 µM | SF-295 > 100 µM | SK-MEL-5 > 100 µM | SNB-75 > 100 µM

CCc1cccc(C)c1NS(=O)(=O)c1ccccc1
inactive: A498 > 100 µM | A549 > 100 µM | CAKI-1 > 100 µM | CCRF-CEM > 100 µM | EKVX > 100 µM | HCC 2998 > 100 µM | HCT-116 > 100 µM | HL-60 > 100 µM | IGROV-1 > 100 µM | K562 > 100 µM | KM12 > 100 µM | MOLT-4 > 100 µM | NCI-H23 > 100 µM | OVCAR-5 > 100 µM | SF-295 > 100 µM | SK-MEL-5 > 100 µM | SNB-75 > 100 µM

C/C(=N\NC(C)(C)C)c1sc(-c2nc(C)c(/C(C)=N/NC(C)(C)C)s2)nc1C
inactive: A498 > 100 µM | A549 > 100 µM | CAKI-1 > 100 µM | CCRF-CEM > 100 µM | EKVX > 100 µM | HCC 2998 > 100 µM | HCT-116 > 100 µM | HL-60 > 100 µM | IGROV-1 > 100 µM | K562 > 100 µM | MOLT-4 > 100 µM | NCI-H23 > 100 µM | SF-268 > 100 µM | SF-295 > 100 µM | SK-MEL-5 > 100 µM | SNB-75 8.32 µM

CN(c1ccccc1)C1C(=O)N(c2ccccc2)C1/C=C/c1ccccc1 (configuration not stated)
inactive: A498 5.58 µM | A549 > 100 µM | CAKI-1 > 100 µM | CCRF-CEM > 100 µM | EKVX > 100 µM | HCC 2998 > 100 µM | HCT-116 > 100 µM | HL-60 > 100 µM | IGROV-1 > 100 µM | KM12 > 100 µM | MOLT-4 > 100 µM | NCI-H23 > 100 µM | OVCAR-5 > 100 µM | SF-268 > 100 µM | SF-295 > 100 µM | SK-MEL-5 > 100 µM | SNB-75 > 100 µM
